The values that follow come from patent US8673949B2 (Bristol-Myers Squibb Company, priority 2008, dated 2014).

Molecules are shown by their SMILES.

The test system of series [1] is phosphorylated Tau (AT8). Description: AT8 phosphoTau immunohistochemistry in Tg4510 mice. It is filed as in vivo, mouse. The protocol: Mice were euthanized by cervical dislocation at 5. 5 months followed by decapitation. Brains were immediately removed and divided down the midline into two hemispheres. The right hemisphere was placed into 20 mL of 4% paraformaldehyde (prepared fresh on the day of sacrifice) and stored overnight at 4° C. The following day, the brains were transferred to a tube containing 20 mL TBS (pH 7.4, 20 mM TRIS, 100 mM NaCl) and then stored at 4° C. until processing. Right hemispheres were embedded in paraffin, sectioned at 5 microns, and mounted on positively charged glass slides. The slides were dried overnight in a 60° C. oven and stored at room temperature until stained. The left hemispheres were frozen (within 2 minutes) on dry ice.
Paraffin-embedded thin sections (5 microns) were deparaffinized and rehydrated to water in 3 changes of xylene, two changes of 100% ethanol, and 1 change of 95% ethanol, followed by rinsing in water. Antigen retrieval was performed by steaming the slides in 10 mM sodium citrate buffer, pH 6.0 for 30 minutes in a Black and Decker Steamer (Model # HS900) and then cooled for 30 minutes. […] After washing in TBS, the signal is detected using a Vectastain ABC Elite Kit (Vector Labs Burlingame, Calif.) for 1 hour followed by detection using the diaminobenzadine reagent from Vector labs. […]

Series [2] is described as follows: Plasma, brain and liver levels after bolus IV administration in nude mice. The following applies: bolus IV 5 mpk; for concentration at 6 h / concentration at 24 h: nude, mouse, in vivo, iv, 5 mg/kg.

With `C/C1=C/C[C@@H](/C(C)=C/c2csc(C)n2)OC(=O)C[C@H](O)C(C)(C)C(=O)[C@H](C)[C@@H](O)[C@@H](C)CCC1` [Epothilone D, epothilone D], the “AT8 phosphoTau staining, hippocampus CA1” value was “much less phosphoTau staining” in series [1] (1 mpk IP weekly, vs vehicle) and “intermediate levels of phosphoTau staining” in series [1] (10 mpk IP weekly). The “brain levels versus liver levels” value in series [2] (6 and 24 h after dosing) is listed as “high brain levels that exceeded liver levels”. The concentration at 6 h amounted to 2790 nM in series [2] (Brain conc) and 6 nM in series [2] (Plasma conc). For the same compound, the concentration at 24 h in series [2] (Brain conc) came to 2050 nM; in series [2] (Plasma conc) it was 1 nM.
